According to PubChem BioAssay AID1919007 (Molecular Pharmacology Branch, DTP, NCI, 2023):
“And” between values parts separate entries of the source, which are not always exact repeats. Equal values may be shown once.

Tested on: A498 complex spheroids with HUVEC/MSC, growth
Assay: Anticancer human tumor A498 cell line growth inhibition [AhR];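 also: seven day exposure starting three days after spheroid seeding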;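 as to viability, T/C: luminescence signal used as a surrogate for viable cells; luminescence viability scaled so 100% equals DMSO vehicle wells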
Conditions: for viability, T/C: stronger effect = lower value
Outline: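 Agents were dosed in half-log steps down from roughly clinical Cmax, or from 10 microM where Cmax was unknown, alone and with AhR antagonists. Read-out: percent test/control growth of tumor spheroids containing HUVEC and MSC stromal cells.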

[1] = curve of first compound, second compound 0.1 µM
[2] = curve of first compound, second compound 0.316 µM
[3] = curve of first compound, second compound 1 µM
[4] = curve of first compound, second compound 3.16 µM
[5] = curve of first compound, second compound 10 µM
[6] = second compound 0.1 µM, first compound 0.0316 µM
[7] = second compound 0.1 µM, first compound 0.1 µM
[8] = second compound 0.1 µM, first compound 0.316 µM
[9] = second compound 0.1 µM, first compound 1 µM
[10] = second compound 0.1 µM, first compound 3.16 µM
[11] = second compound 0.1 µM, first compound 10 µM
[12] = second compound 0.316 µM, first compound 0.0316 µM
[13] = second compound 0.316 µM, first compound 0.1 µM
[14] = second compound 0.316 µM, first compound 0.316 µM
[15] = second compound 0.316 µM, first compound 1 µM
[16] = second compound 0.316 µM, first compound 3.16 µM
[17] = second compound 0.316 µM, first compound 10 µM
[18] = second compound 1 µM, first compound 0.0316 µM
[19] = second compound 1 µM, first compound 0.1 µM
[20] = second compound 1 µM, first compound 0.316 µM
[21] = second compound 1 µM, first compound 1 µM
[22] = second compound 1 µM, first compound 3.16 µM
[23] = second compound 1 µM, first compound 10 µM
[24] = second compound 3.16 µM, first compound 0.0316 µM
[25] = second compound 3.16 µM, first compound 0.1 µM
[26] = second compound 3.16 µM, first compound 0.316 µM
[27] = second compound 3.16 µM, first compound 1 µM
[28] = second compound 3.16 µM, first compound 3.16 µM
[29] = second compound 3.16 µM, first compound 10 µM
[30] = second compound 10 µM, first compound 0.0316 µM
[31] = second compound 10 µM, first compound 0.1 µM
[32] = second compound 10 µM, first compound 0.316 µM
[33] = second compound 10 µM, first compound 1 µM
[34] = second compound 10 µM, first compound 3.16 µM
[35] = second compound 10 µM, first compound 10 µM

SMILES: CC1(C)CCC(CN2CCN(c3ccc(C(=O)NS(=O)(=O)c4ccc(NCC5CCOCC5)c([N+](=O)[O-])c4)c(Oc4cnc5[nH]ccc5c4)c3)CC2)=C(c2ccc(Cl)cc2)C1 + Cc1ccccc1N=Nc1ccc(NC(=O)c2ccnn2C)c(C)c1
- IC50 [1]: 8.58 µM
- IC50 [2]: > 10 µM
- IC50 [3]: 8.78 µM
- IC50 [4]: > 10 µM
- IC50 [5]: 8.77 µM
- viability, T/C [6]: 88.7%
- viability, T/C [7]: 89.5%
- viability, T/C [8]: 87.9%
- viability, T/C [9]: 86.6%
- viability, T/C [10]: 76.8%
- viability, T/C [11]: 45.8%
- viability, T/C [12]: 99.9%
- viability, T/C [13]: 98.2%
- viability, T/C [14]: 95.6%
- viability, T/C [15]: 87.5%
- viability, T/C [16]: 75.9%
- viability, T/C [17]: 52.3%
- viability, T/C [18]: 84.7%
- viability, T/C [19]: 87.4%
- viability, T/C [20]: 83.6%
- viability, T/C [21]: 72%
- viability, T/C [22]: 66.5%
- viability, T/C [23]: 47.8%
- viability, T/C [24]: 83%
- viability, T/C [25]: 86.7%
- viability, T/C [26]: 91.3%
- viability, T/C [27]: 76.9%
- viability, T/C [28]: 66.7%
- viability, T/C [29]: 50.5%
- viability, T/C [30]: 88.3%
- viability, T/C [31]: 86.7%
- viability, T/C [32]: 84.6%
- viability, T/C [33]: 77.6%
- viability, T/C [34]: 78.5%
- viability, T/C [35]: 46%

SMILES: COc1cc(Nc2ncc3c(n2)-c2ccc(Cl)cc2C(c2c(F)cccc2OC)=NC3)ccc1C(=O)O
- viability, T/C (compound 0.0316 µM): 80.4% and 74.9% and 66.8%
- viability, T/C (compound 0.1 µM): 75.4% and 73.6% and 76.6%
- viability, T/C (compound 0.316 µM): 72.2% and 71.5% and 58.7%
- viability, T/C (compound 1 µM): 55.6% and 60.1% and 52.7%
- viability, T/C (compound 3.16 µM): 50% and 51.6% and 46%
- viability, T/C (compound 10 µM): 38.7% and 36% and 35.6%
- IC50 (curve of compound): 2.48 µM and 3.42 µM and 1.5 µM

SMILES: CC(C)CC(NC(=O)C(Cc1ccccc1)NC(=O)c1cnccn1)B(O)O (centres undefined)
- viability, T/C (compound 0.000949 µM): 103% and 105% and 98.6%
- viability, T/C (compound 0.003 µM): 106% and 99.9% and 58.5%
- viability, T/C (compound 0.00949 µM): 6.74% and 11.6% and 2.52%
- viability, T/C (compound 0.03 µM): 1.23% and 2.41% and 0.68%
- viability, T/C (compound 0.0949 µM): 0.52% and 1.47% and 1.32%
- viability, T/C (compound 0.3 µM): 0.53% and 0.64% and 0.32%
- IC50 (curve of compound): 0.0057 µM and 0.00575 µM and 0.00357 µM

SMILES: CC1(C)CCC(CN2CCN(c3ccc(C(=O)NS(=O)(=O)c4ccc(NCC5CCOCC5)c([N+](=O)[O-])c4)c(Oc4cnc5[nH]ccc5c4)c3)CC2)=C(c2ccc(Cl)cc2)C1 + CC(CO)NC(=O)c1cc(-c2ccc(Cl)cc2)nn(-c2cnn(C)c2)c1=O
- IC50 [1]: 5.41 µM
- IC50 [2]: 5.05 µM
- IC50 [3]: 4.9 µM
- IC50 [4]: 3.97 µM
- IC50 [5]: 3.8 µM
- viability, T/C [6]: 98.3%
- viability, T/C [7]: 98%
- viability, T/C [8]: 94.3%
- viability, T/C [9]: 86.4%
- viability, T/C [10]: 75.1%
- viability, T/C [11]: 23.6%
- viability, T/C [12]: 91.1%
- viability, T/C [13]: 92.3%
- viability, T/C [14]: 85.7%
- viability, T/C [15]: 84.7%
- viability, T/C [16]: 69.7%
- viability, T/C [17]: 21.6%
- viability, T/C [18]: 82.5%
- viability, T/C [19]: 85.1%
- viability, T/C [20]: 86.4%
- viability, T/C [21]: 79.5%
- viability, T/C [22]: 68.8%
- viability, T/C [23]: 20.3%
- viability, T/C [24]: 77.5%
- viability, T/C [25]: 79.4%
- viability, T/C [26]: 79.4%
- viability, T/C [27]: 63.3%
- viability, T/C [28]: 61.2%
- viability, T/C [29]: 20.6%
- viability, T/C [30]: 64.3%
- viability, T/C [31]: 69.5%
- viability, T/C [32]: 66.1%
- viability, T/C [33]: 59.4%
- viability, T/C [34]: 56.8%
- viability, T/C [35]: 22.4%
